According to patent US9102675B2, “3-Cyanoaryl-1H-pyrrolo[2,3-B] pyridine derivatives” (MERCK PATENT GMBH, priority 2011, dated 2015):

Columns and labels:
TBK1 + IKKε = TBK1 + IKKε cell assay: dose response inhibition of phospho-IRF3 @ Ser 386 in MDA-MB-468 cells after poly(I:C) stimulation; format: cell-based; settings: Homo sapiens, MDA-MB-468, MDA-MB-468 cells, reference inhibitor, read-out: IC50 of reference inhibitor in phospho-IRF3 cell assay
Excerpt: Dose response inhibition of phospho-IRF3 @ Ser 386 cell/MDAMB468/INH/PHOS/IMAG/pIRF3
Although TBK1 and IKKε are mainly known as key substances in the innate immune response, recent findings have indicated a role for TBK1 and IKKε in Ras-induced oncogenic transformation. TBK1 was identified as RaIB effector in the Ras-like (RaI)-guanine nucleotide exchange factor (GEF) pathway that is required for Ras-induced transformation. TBK1 directly activates IRF3 which, on phosphorylation, homodimerises and translocates to the nucleus, where it activates processes associated with inflammation, immune regulation, cell survival and proliferation.
This assay has been developed in order to assess the efficacy/potency of TBK1/IKKε inhibitor compounds based on the immunocytochemical detection of nucleus-localised phospho-IRF3, a target directly downstream of TBK1. Treatment with polyinosine-polycytidylic acid (poly(I:C), a synthetic analogue of double-stranded RNA (dsRNA), a molecular pattern associated with viral infection and recognised by Toll-like receptor 3 (TLR3) is used to induce TBK1/IKKε activity and IRF3 phosphorylation at Ser386.
Day 1: MDA-MB-468 cells are detached using HyQ-Tase, counted and sown into a 384-well plate with TC surface and clear bottom in a density of 10,000 cells per well in a total volume of 35 μl of complete medium. Alternatively, the cells are sown directly from frozen glass vials.
Day 2: The cells are pre-treated with inhibitor compounds for 1 h prior to poly(I:C) stimulation. After incubation for 2 h with poly(I:C), the cells are fixed in (para)formaldehyde (PFA) and permeabilised using methanol (MeOH). The cells are then blocked and incubated with an anti-pIRF3 antibody at 4° C. overnight.
Day 3: The primary antibody is washed off, an AlexaFluor488-conjugated secondary antibody is added, the cells are contrast-stained with propidium iodide, followed by image acquisition on an IMX ultra-high content reader.
Plating medium=culture medium: • RPMI 1640, Invitrogen #31870 • 10% of FCS, Invitrogen #10270-106 • 2 mM Glutamax, Invitrogen #35050-038 • 1 mM sodium pyruvate, Invitrogen #11360 • 1% of Pen/Strep • 37° C., 5% of CO2
Plates: 384-well bottom cell culture plates with black/clear bottom, Falcon #35 3962 or Greiner #781090
Subcultivation: HyQ-Tase, Thermo Scientific (HyClone) # SV30030.01
Poly(I:C) (LMW), Invitrogen # tlrl-picw (prepare 20 mg/ml stock solution in sterile PBS, denature 30 min 55° C. in a water bath, slowly cool to RT, store at −20° C. in aliquots)
a 10-point dose-response curve with MSC2119074A-4=BX-795 is included in each experiment
Formaldehyde (methanol-free, 16%, ultrapure EM grade), Polysciences #18814 (storage RT), final conc.: 4%
Goat serum, PAA # B15-035 (storage 4° C., long term −20° C.), final conc.: 10%
BSA (IgG- and protease-free, 30%), US-Biological # A1317 (storage 4° C., long term −20° C.), final conc.: 2%
Tween 20 detergent, Calbiochem #655204 (storage RT), (prepare 10% stock solution in water; final conc.: 0.1%)
Anti-pIRF-3 rabbit mAb, Epitomics #2526-B (storage −20° C.), final conc.: 1:2000 in PBS/2% of BSA
Alexa Fluor goat-anti-rabbit-488, Invitrogen # A11034 or # A11008 (storage 4° C., dark), final conc.: 1:2000 in PBS/2% of BSA/0.1% of Tween
Propidium iodide (PI), Fluka #81845, 1 mg/ml in H2O (storage 4° C., dark), final conc.: 0.2 μg/ml
(1) Sow 10,000 cells/well/35μof complete RPMI +10% FCS into 384-well bottom cell culture plates with black / clear bottom,
(2) Incubate for 2 h at room temperature on the bench, followed by further incubation for 22 h at 37° C., 5% of CO2 and 90% RH. […]

[1] = target: T1, TANK binding kinase (TBK1) (Homo sapiens, UniProt Q9UHD2); experiment: TBK1 enzyme assay (384-well flashplate kinase assay); format: biochemical; settings: 10 μM ATP, 0.6 nM TBK1
T1 sequence (Q9UHD2 1-729): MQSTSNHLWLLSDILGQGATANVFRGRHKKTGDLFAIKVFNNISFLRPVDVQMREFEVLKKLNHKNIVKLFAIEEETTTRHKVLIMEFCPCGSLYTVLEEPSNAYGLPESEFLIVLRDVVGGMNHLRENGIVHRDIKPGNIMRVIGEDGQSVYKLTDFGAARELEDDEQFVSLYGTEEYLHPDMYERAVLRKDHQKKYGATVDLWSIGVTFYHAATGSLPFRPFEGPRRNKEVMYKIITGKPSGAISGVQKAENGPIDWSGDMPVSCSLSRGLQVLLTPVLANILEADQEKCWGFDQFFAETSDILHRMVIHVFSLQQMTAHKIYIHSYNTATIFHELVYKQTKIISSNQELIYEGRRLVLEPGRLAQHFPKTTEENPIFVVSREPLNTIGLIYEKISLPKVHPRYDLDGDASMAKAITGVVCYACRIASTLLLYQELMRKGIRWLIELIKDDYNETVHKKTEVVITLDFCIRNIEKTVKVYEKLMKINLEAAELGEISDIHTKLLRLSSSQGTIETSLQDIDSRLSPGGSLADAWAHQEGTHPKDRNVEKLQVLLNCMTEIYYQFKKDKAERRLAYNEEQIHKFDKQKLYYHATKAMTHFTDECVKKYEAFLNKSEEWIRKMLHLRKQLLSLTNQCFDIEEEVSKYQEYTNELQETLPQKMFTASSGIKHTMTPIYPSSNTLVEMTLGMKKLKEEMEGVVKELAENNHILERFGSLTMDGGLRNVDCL
Description: Test for the Inhibition of TBK1
(§1) The kinase assay is performed as 384-well flashplate assay (for example for Topcount measurement).
0.6 nM TANK binding kinase (TBK1), 800 nM biotinylated MELK-derived peptide (biotin-Ah-Ah-[…]) and 10 μM ATP (spiked with 0.25 μCi of ^33P-ATP/well) are incubated at 30° C. for 120 min in a total volume of 50 μl (10 mM MOPS, 10 mM Mg acetate, 0.1 mM EGTA, 1 mM DTT, 0.02% of Brij35, 0.1% of BSA, pH 7.5) with or without test compound. The reaction is stopped with 25 μl of 200 mM EDTA. After 30 min at room temperature, the liquid is removed, and each well is washed three times with 100 μl of 0.9% sodium chloride solution. Non-specific reaction is measured in the presence of 100 nM staurosporine. The radioactivity is measured in a Topcount (PerkinElmer). The results (for example IC50 values) are calculated using program tools provided by the IT Department (for example Assay-Explorer, Symyx). Cell Test

IKKε = target: T2, IKKε (Homo sapiens, UniProt Q14164); experiment: IKKε kinase assay (384-well flashplate assay); format: biochemical; settings: 10 μM ATP, 1 nM IKKε; read-out: IKKε enzyme assay IC50
T2 sequence (Q14164 1-716): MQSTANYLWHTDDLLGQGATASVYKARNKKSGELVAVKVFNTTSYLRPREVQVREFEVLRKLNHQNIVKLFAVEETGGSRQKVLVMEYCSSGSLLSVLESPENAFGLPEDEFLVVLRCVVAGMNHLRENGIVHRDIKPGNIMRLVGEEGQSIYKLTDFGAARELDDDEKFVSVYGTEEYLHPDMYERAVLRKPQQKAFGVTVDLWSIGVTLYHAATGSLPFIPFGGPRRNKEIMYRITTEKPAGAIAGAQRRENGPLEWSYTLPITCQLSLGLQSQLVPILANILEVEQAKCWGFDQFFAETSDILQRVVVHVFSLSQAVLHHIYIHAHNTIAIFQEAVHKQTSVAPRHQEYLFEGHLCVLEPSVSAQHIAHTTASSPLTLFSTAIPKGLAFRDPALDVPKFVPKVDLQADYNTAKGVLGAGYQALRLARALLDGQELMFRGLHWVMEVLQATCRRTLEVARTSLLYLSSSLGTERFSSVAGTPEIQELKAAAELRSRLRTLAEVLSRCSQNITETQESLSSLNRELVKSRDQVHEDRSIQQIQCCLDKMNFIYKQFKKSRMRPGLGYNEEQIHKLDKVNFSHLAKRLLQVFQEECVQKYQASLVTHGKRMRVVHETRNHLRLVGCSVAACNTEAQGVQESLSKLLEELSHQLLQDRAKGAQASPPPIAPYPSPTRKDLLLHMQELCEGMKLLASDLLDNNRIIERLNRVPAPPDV
Description: Test for the Inhibition of IKKε
IKKε—Kinase Assay (IKKepsilon)
as §1
1 nM IKKε, 800 nM biotinylated IκKα(19-42) peptide (Biotin-C6-C6-[…]) and 10 μM ATP (spiked with 0.3 μCi of ^33P-ATP/well) are incubated at 30° C. for 2 hours in a total volume of 50 μl (10 mM MOPS, 10 mM Mg acetate, 0.1 mM EGTA, 1 mM dithiothreitol, 0.02% of Brij35, 0.1% of BSA, 0.1% of BioStab, pH 7.5) with or without test compound. The reaction is stopped using 25 μl of 200 mM EDTA. After 30 min at room temperature, the liquid is removed, and each well is washed three times with 100 μl of 0.9% sodium chloride solution. Non-specific reaction is determined in the presence of 3 μM MSC2119074 (BX-795). The radioactivity is measured using a Topcount (Perkin Elmer). The results (for example IC50 values) are calculated using program tools provided by the IT Department (for example AssayExplorer, Symyx).

`O=C(NCCCNc1nc(Nc2cccc(NC(=O)N3CCCC3)c2)ncc1I)c1cccs1` [BX-795, reference compound] gave an IC50 (TBK1 + IKKε) of 0.2 to 0.8 µM.
Work on `COc1ccnc2[nH]cc(-c3ccc(OC4CCOCC4)c(C#N)c3)c12` [Compound A2, 5-(4-methoxy-1H-pyrrolo[2,3-b]pyridin-3-yl)-2-tetrahydropyran-4-yloxybenzonitrile] yielded an IC50 [1] of 0.3 to 3 µM and an IC50 (IKKε) of 0.3 to 3 µM.
For `COc1ccc2c(-c3ccc(OC4CCOCC4)c(C#N)c3)c[nH]c2n1` [Compound A3, 5-(6-methoxy-1H-pyrrolo[2,3-b]pyridin-3-yl)-2-tetrahydropyran-4-yloxybenzonitrile], the IC50 [1] was 3 to 50 µM and the IC50 (IKKε) was 3 to 50 µM.
`N#Cc1cc(-c2c[nH]c3ncc(Br)cc23)ccc1OC1CCOCC1` [Compound A5, 5-(5-bromo-1H-pyrrolo[2,3-b]pyridin-3-yl)-2-tetrahydropyran-4-yl-oxy-benzonitrile] gave an IC50 [1] of 3 to 50 µM and an IC50 (IKKε) of 3 to 50 µM.
Molecule `N#Cc1ccc(-c2cnc3[nH]cc(-c4ccc(OC5CCOCC5)c(C#N)c4)c3c2)cc1` [Compound A6, 5-[5-(4-cyanophenyl)-1H-pyrrolo[2,3-b]pyridin-3-yl]-2-tetrahydropyran-4-yloxybenzonitrile] has an IC50 [1] of under 0.3 µM and an IC50 (IKKε) of 0.3 to 3 µM.
For `Cc1[nH]c2ncc(-c3cnn(C)c3)cc2c1-c1ccc(OC2CCOCC2)c(C#N)c1` [Compound A11, 5-[2-methyl-5-(1-methylpyrazol-4-yl)-1H-pyrrolo[2,3-b]pyridin-3-yl]-2-tetrahydropyran-4-yloxybenzonitrile], the IC50 [1] was under 0.3 µM and the IC50 (IKKε) was 0.3 to 3 µM.
Molecule `N#Cc1cc(-c2c[nH]c3ncc(Br)cc23)ccc1OCC1CC1` [Compound A14, 5-(5-bromo-1H-pyrrolo[2,3-b]pyridin-3-yl)-2-(cyclopropylmethoxy)benzonitrile] has an IC50 [1] of 3 to 50 µM and an IC50 (IKKε) of 3 to 50 µM.
`N#Cc1cc(-c2c[nH]c3ncc(-c4cnn(C5CCN(S(=O)(=O)c6ccccc6)CC5)c4)cc23)cnc1OC1CCOCC1` [Compound A19, 5-[5-[1-[1-(benzenesulfonyl)-4-piperidyl]pyrazol-4-yl]-1H-pyrrolo[2,3-b]pyridin-3-yl]-2-tetrahydropyran-4-yloxypyridine-3-carbonitrile] was tested, and the IC50 [1] was 0.3 to 3 µM and the IC50 (IKKε) was 0.3 to 3 µM.
